Experimental data: ChEMBL document CHEMBL3352083, “Antibacterial activity of novel benzopolycyclic amines” (Bioorg Med Chem, 2015)
Values after ≈ are worked out from the molar mass of the structure shown. Active and inactive are the calls of the source. The rule behind the calls is not given here.

Test system: not listed separately
Experiment: Selectivity index, ratio of CC50 for macrophages (unknown origin) to MIC50 for Staphylococcus aureus CECT 86 ATCC 12600
Type: functional
Settings: not given

SMILES	Selectivity Index
Cl.NC12CC3CC(Cl)(CC(C1)c1ccccc13)C2	10.1
CN(C)C12CC3CC(C1)c1ccccc1C(C3)C2	0.15
NC12CC3CC(C1)c1ccccc1C(C3)C2	3.4

Test system: not listed separately
Experiment: Selectivity index, ratio of CC50 for macrophages (unknown origin) to MIC50 for Enterococcus faecalis CECT 481 ATCC 19433
Type: functional
Settings: not given

SMILES	Selectivity Index
Cl.NC12CC3CC(Cl)(CC(C1)c1ccccc13)C2	6.05

Test system: Staphylococcus epidermidis
Experiment: Antimicrobial activity against Staphylococcus epidermidis CECT 231 ATCC 1798 incubated for 18 hrs by microplate reader based assay
Type: functional
Settings: CECT 231 ATCC 1798, 18 h

SMILES	MIC50 [µM]
Cl.NC12CC3CC(Cl)(CC(C1)c1ccccc13)C2	75

Same assay, conditions: CECT 231 ATCC 1798, 18 h, read-out: MIC100

SMILES	MIC [µM]
Cl.NC12CC3CC(Cl)(CC(C1)c1ccccc13)C2	< 250

Test system: not listed separately
Experiment: Selectivity index, ratio of CC50 for macrophages (unknown origin) to MIC50 for Streptococcus mutans CECT 479 ATCC 25175
Type: functional
Settings: not given

SMILES	Selectivity Index
Cl.NC12CC3CC(Cl)(CC(C1)c1ccccc13)C2	6.05

Test system: Staphylococcus aureus
Experiment: Antimicrobial activity against methicillin-resistant Staphylococcus aureus incubated for 18 hrs by microplate reader based assay
Type: functional
Settings: not given

SMILES	MIC50 [µM]
Cl.NC12CC3CC(Cl)(CC(C1)c1ccccc13)C2	75

Same assay, conditions: read-out: MIC100

SMILES	MIC [µM]
Cl.NC12CC3CC(Cl)(CC(C1)c1ccccc13)C2	< 180

Test system: not listed separately
Experiment: Antimicrobial activity against Streptococcus mutans CECT 479 ATCC 25175 incubated for 18 hrs by microplate reader based assay
Type: functional, Streptococcus mutans ATCC 25175
Settings: CECT 479, 18 h

SMILES	MIC50 [µM]
Cl.NC12CC3CC(Cl)(CC(C1)c1ccccc13)C2	60

Same assay, conditions: CECT 479, 18 h, read-out: MIC100

SMILES	MIC [µM]
Cl.NC12CC3CC(Cl)(CC(C1)c1ccccc13)C2	> 250

Test system: Staphylococcus aureus
Experiment: Bacteriolytic activity against Staphylococcus aureus CECT 86 ATCC 12600 at 36 uM incubated for 3 hrs by live/dead assay
Type: functional, organism-based
Settings: not given

SMILES	Activity
Cl.NC12CC3CC(Cl)(CC(C1)c1ccccc13)C2	Active

Test system: Staphylococcus aureus
Experiment: Antimicrobial activity against Staphylococcus aureus CECT 86 ATCC 12600 incubated for 18 hrs by microplate reader based assay
Type: functional
Settings: CECT 86 ATCC 12600, 18 h

SMILES	MIC50 [µM]
CN(C)C12CC3CC(F)(CC(C1)c1ccccc13)C2	> 1000
NNC12CC3CC(CC(C1)c1ccccc13)O2	> 1000
CN(Cc1ccccc1)C12CC3CC(CC(C1)c1ccccc13)O2	> 1000
CN(C)C12CC3CC(Cl)(CC(C1)c1ccccc13)C2	< 625
c1ccc(CN(Cc2ccccc2)C23CC4CC(CC(C2)c2ccccc24)O3)cc1	> 1000
c1ccc(CNC23CC4CC(CC(C2)c2ccccc24)O3)cc1	> 1000
NC12CC3CC(F)(CC(C1)c1cc([N+](=O)[O-])ccc13)C2 (stereo not given)	125 (≈ 34.5 µg/mL)
CC12CC3CC(NCc4ccccc4)(CC(C1)c1ccccc13)C2	> 1000
CC12CC3CC(NCC(N)=O)(CC(C1)c1ccccc13)C2	> 1000
O=C(O)c1cn(C2CC2)c2cc(N3CCNCC3)c(F)cc2c1=O [CIPROFLOXACIN]	0.3 (≈ 0.0994 µg/mL)
CN(Cc1ccccc1)C12CC3CC(C)(CC(C1)c1ccccc13)C2	> 1000
CCN(CC)C12CC3CC(C)(CC(C1)c1ccccc13)O2	> 1000
NC12CC3CC(CC(C1)c1ccccc13)O2	> 1000
CC12CC3CC(N)(CC(C1)c1ccccc13)C2	> 1000
CN(C)C12CC3CC(C)(CC(C1)c1ccccc13)C2	> 1000
Cl.NC12CC3CC(Cl)(CC(C1)c1ccccc13)C2	36
CN(C)C12CC3CC(O)(CC(C1)c1ccccc13)C2	> 1000
CC(=O)NC12CC3CC(C)(CC(C1)c1ccccc13)O2	> 1000
CN(C)C12CC3CC(F)(CC(C1)c1cc([N+](=O)[O-])ccc13)C2 (stereo not given)	< 425
CN(C)C12CC3CC(C1)c1ccccc1C(C3)C2	304 (≈ 73.4 µg/mL)
Nc1ccc2c(c1)C1CC3(N)CC2CC(F)(C1)C3 (stereo not given)	< 375
C#CCNC12CC3CC(CC(C1)c1ccccc13)O2	> 1000
CN(C)C12CC3CC(C)(CC(C1)c1ccccc13)O2	> 1000
NC12CC3CC(F)(CC(C1)c1ccccc13)C2	95 (≈ 22 µg/mL)
NC12CC3CC(C1)c1ccccc1C(C3)C2	17 (≈ 3.63 µg/mL)

Same assay, conditions: CECT 86 ATCC 12600, 18 h, read-out: MIC100

SMILES	MIC [µM]
CN(C)C12CC3CC(Cl)(CC(C1)c1ccccc13)C2	< 1250
NC12CC3CC(F)(CC(C1)c1cc([N+](=O)[O-])ccc13)C2 (stereo not given)	< 312
Cl.NC12CC3CC(Cl)(CC(C1)c1ccccc13)C2	< 156
CN(C)C12CC3CC(O)(CC(C1)c1ccccc13)C2	> 10000
CN(C)C12CC3CC(F)(CC(C1)c1cc([N+](=O)[O-])ccc13)C2 (stereo not given)	< 1250
CN(C)C12CC3CC(C1)c1ccccc1C(C3)C2	< 625
Nc1ccc2c(c1)C1CC3(N)CC2CC(F)(C1)C3 (stereo not given)	< 1250
NC12CC3CC(F)(CC(C1)c1ccccc13)C2	< 312
NC12CC3CC(C1)c1ccccc1C(C3)C2	> 39

Test system: not listed separately
Experiment: Selectivity index, ratio of CC50 for macrophages (unknown origin) to MIC50 for Staphylococcus epidermidis CECT 231 ATCC 1798
Type: functional
Settings: not given

SMILES	Selectivity Index
Cl.NC12CC3CC(Cl)(CC(C1)c1ccccc13)C2	4.84

Test system: Burkholderia cenocepacia
Experiment: Antimicrobial activity against Burkholderia cenocepacia J2315 incubated for 18 hrs by microplate reader based assay
Type: functional
Settings: J2315, 18 h

SMILES	MIC50 [µM]
Cl.NC12CC3CC(Cl)(CC(C1)c1ccccc13)C2	< 125

Same assay, conditions: J2315, 18 h, read-out: MIC100

SMILES	MIC [µM]
Cl.NC12CC3CC(Cl)(CC(C1)c1ccccc13)C2	> 250

Test system: Pseudomonas aeruginosa
Experiment: Antimicrobial activity against Pseudomonas aeruginosa PAO1 CECT 4122 ATCC 15692 incubated for 18 hrs by microplate reader based assay
Type: functional
Settings: not given

SMILES	MIC50
CN(C)C12CC3CC(F)(CC(C1)c1ccccc13)C2	inactive
NNC12CC3CC(CC(C1)c1ccccc13)O2	inactive
CN(Cc1ccccc1)C12CC3CC(CC(C1)c1ccccc13)O2	inactive
c1ccc(CN(Cc2ccccc2)C23CC4CC(CC(C2)c2ccccc24)O3)cc1	inactive
c1ccc(CNC23CC4CC(CC(C2)c2ccccc24)O3)cc1	inactive
CC12CC3CC(NCc4ccccc4)(CC(C1)c1ccccc13)C2	inactive
CC12CC3CC(NCC(N)=O)(CC(C1)c1ccccc13)C2	inactive
CN(Cc1ccccc1)C12CC3CC(C)(CC(C1)c1ccccc13)C2	inactive
CCN(CC)C12CC3CC(C)(CC(C1)c1ccccc13)O2	inactive
NC12CC3CC(CC(C1)c1ccccc13)O2	inactive
CC12CC3CC(N)(CC(C1)c1ccccc13)C2	inactive
CN(C)C12CC3CC(C)(CC(C1)c1ccccc13)C2	inactive
CC(=O)NC12CC3CC(C)(CC(C1)c1ccccc13)O2	inactive
CN(C)C12CC3CC(C1)c1ccccc1C(C3)C2	inactive
C#CCNC12CC3CC(CC(C1)c1ccccc13)O2	inactive
CN(C)C12CC3CC(C)(CC(C1)c1ccccc13)O2	inactive
NC12CC3CC(F)(CC(C1)c1ccccc13)C2	inactive
NC12CC3CC(C1)c1ccccc1C(C3)C2	inactive

Same assay, conditions: PAO1 CECT 4122 ATCC 15692, 18 h

SMILES	MIC50 [µM]
O=C(O)c1cn(C2CC2)c2cc(N3CCNCC3)c(F)cc2c1=O [CIPROFLOXACIN]	1.2 (≈ 0.398 µg/mL)
Cl.NC12CC3CC(Cl)(CC(C1)c1ccccc13)C2	1250
CN(C)C12CC3CC(O)(CC(C1)c1ccccc13)C2	< 2500

Same assay, conditions: PAO1 CECT 4122 ATCC 15692, 18 h, read-out: MIC100

SMILES	MIC [µM]
Cl.NC12CC3CC(Cl)(CC(C1)c1ccccc13)C2	> 1250
CN(C)C12CC3CC(O)(CC(C1)c1ccccc13)C2	5000 (≈ 1290 µg/mL)

Test system: Staphylococcus aureus
Experiment: Anti-biofilm activity against Staphylococcus aureus CECT 86 ATCC 12600 incubated for 24 to 48 hrs
Type: functional
Settings: not given

SMILES	MBIC50 [µM]
Cl.NC12CC3CC(Cl)(CC(C1)c1ccccc13)C2	45

Test system: not listed separately
Experiment: Selectivity index, ratio of CC50 for macrophages (unknown origin) to MIC50 for methicillin-resistant Staphylococcus aureus
Type: functional
Settings: not given

SMILES	Selectivity Index
Cl.NC12CC3CC(Cl)(CC(C1)c1ccccc13)C2	4.84

Test system: not listed separately
Experiment: Toxicity against macrophages (unknown origin) assessed as reduction in cell viability after 24 to 48 hrs by MTT assay
Type: cell-based, Macrophage
Settings: not given

SMILES	CC50 [µM]
Cl.NC12CC3CC(Cl)(CC(C1)c1ccccc13)C2	363
CN(C)C12CC3CC(O)(CC(C1)c1ccccc13)C2	> 100
CN(C)C12CC3CC(C1)c1ccccc1C(C3)C2	44.5
NC12CC3CC(C1)c1ccccc1C(C3)C2	58.5

Test system: not listed separately
Experiment: Antimicrobial activity against Enterococcus faecalis CECT 481 ATCC 19433 incubated for 18 hrs by microplate reader based assay
Type: functional, Enterococcus faecalis ATCC 19433
Settings: CECT 481, 18 h

SMILES	MIC50 [µM]
Cl.NC12CC3CC(Cl)(CC(C1)c1ccccc13)C2	60

Same assay, conditions: CECT 481, 18 h, read-out: MIC100

SMILES	MIC [µM]
Cl.NC12CC3CC(Cl)(CC(C1)c1ccccc13)C2	> 250
